This is an account of results in ChEMBL document CHEMBL1133036, “Diacylglycerols with lipophilically equivalent branched acyl chains display high affinity for protein kinase C (PK-C). A direct measure of the effect of constraining the glycerol backbone in DAG lactones” (Bioorg Med Chem Lett, 2000).

The nature of this data set: Partition coefficient (logD). Particulars: octanol/water. It counts as physicochemical.
What is called logD is lipophilicity at a set pH, counting ionised and neutral species. Read a high logD as higher lipophilicity. For the compound `O=C(OC[C@H](CO)OC(=O)C12CC3CC(CC(C3)C1)C2)C12CC3CC(CC(C3)C1)C2`, the logD came out at 5.

`CC(C)C(C/C=C1/CC(CO)(COC(=O)CC(C(C)C)C(C)C)OC1=O)C(C)C` (stereo unspecified) displayed a logD of 5. In turn, `CCCCCCCC/C=C/CCCCCCCC(=O)O[C@@H](CO)COC(C)=O` [AUTONOM NAME:] registered a logD of 7. Take `CC(C)(C)C(=O)OCC(CO)OC(=O)C(C)(C)C` (stereo unspecified): the logD came to 2. The same measure for `CC(C)C(CC(=O)OC[C@H](CO)OC(=O)CC(C(C)C)C(C)C)C(C)C`: 5. The same measure for `CCCCCCCC(=O)OC[C@H](CO)OC(=O)CCCCCCC`: 5.
